# Columns and labels:
# [1] = molecular target: T1, human alpha1,beta2,gamma2 Long GABAA receptor subtype (Homo sapiens, UniProt P14867+P47870); test: Patch-clamp (Dynaflow system) current response in HEK-293 cells transfected with alpha1,beta2,gamma2 Long GABAA receptor; format: cell-based
# T1 construct: expressed in transfected cells; host or cells: HEK-293
# Experimental: (§1) In these tests the protocol was optimized to be similar to the physiological conditions in the synaptic cleft.
# (§2) Cell culture: HEK-293 cells, permanently transfected with the human alpha1,beta,gamma and alpha4,beta,delta GABAA receptor subtypes, were seeded at a density of 3×10^4/25 cm^2 in a culture flask. The transfected cells were used for patch-clamp experiments 3 days after seeding. When using the cells for patch-clamp experiments the cells were washed twice with oxygen-bubbled extra cellular (EC) solution (see below). About 5 mL EC was then added and the cells were kept in the incubator for about 15 minutes. After 15 minutes the cells came loose from the bottom of the flask and were separated by carefully sucking a couple of times with a Pasteur pipette.
# (§3) Dynaflow™ system with Resolve chip was used for patch-clamp experiments: The electrophysiological recordings from HEK-293 cells were performed under voltage-clamp conditions using patch-clamp technique and the Dynaflow™ system (Dynaflow Pro II Platform Zeiss Axiovert 25; Cellectricon AB, Sweden) with Resolve chips as application system.
# (§4) Patch pipettes were pulled from borosilicate glass and polished to a resistance 2-5 MΩ when filled with suitable intracellular solution (IC) (pH was adjusted to 7.2) and immersed in bath solution (extracellular, EC) (pH is adjusted to 7.4).
# (§5) The recordings were made using an Axopatch 200B amplifier, a Digidata 1322A (Axon instruments, Foster city, USA). Data were analysed using the pCLAMP software sampled at 10 kHz, filtered at 2-10 kHz and analyzed with Clampfit (versions 9.0, both from Axon instruments, Foster city, USA). No higher series resistance than 20 MΩ between pipette and cell membrane was accepted. No series resistance compensation was used. The stability of series resistance was monitored repeatedly from the time course of capacitative transients during the experiments. The measured liquid-junction potential between EC and IC was subtracted in all data presented. All experiments were performed at room temperature (21-23° C.).
# (§6) All steroids were dissolved to the concentration of 6 mM in DMSO. […] End solutions were the solutions added into the wells of the chip.
# (§7) Electrophysiology: After compensating for the liquid junction potential a steady holding potential of −17 mV was used in all experiments. […] By using the holding potential of −17 mV and the intracellular solution with low chloride ion concentration the chloride ions flux into the cell when the receptors were activated.
# The Dynaflow system allowed application of solutions for as short as 40 ms up to minutes in time.
# In the experiments, THDOC and 3alpha-OH-adiol were used as the positive GABAA receptor modulating steroids.
# (§8) Different incubation times were studied to achieve the optimal time for attaining stable results and minimize the washout time.
# Study design: Studies were conducted on current response mediated by chloride ion flux through the GABAA receptor. […] The same patch-clamp technique was used as described above (Example 1) using the Dynaflow™ application system. THDOC was used as positive GABAA receptor modulating steroid as it has shorter washout time compared to allopregnanolone but works with the same mechanisms on the same GABAA receptor binding site as allopregnanolone.
# HEK-293 cells, permanently transfected with cDNA expressing the human alpha1,beta2,gamma2 Long GABAA receptor subtype. The tissue culture and the handling of the cells were as described in Example 1. In the patch-clamp experiments the transfected cells were used minimum two passages after defrosting and 3 days after seeding. The cells were seeded for maximal 25 times.
# [2] = molecular target: T2, human alpha4,beta,delta GABAA receptor subtype (Homo sapiens, UniProt P28472+P48169); test: Patch-clamp (Dynaflow system) current response in HEK-293 cells transfected with alpha4,beta3,delta GABAA receptor; format: cell-based
# T2 construct: expressed in transfected cells; host or cells: HEK-293
# Experimental: as §1, §2, §3, §4, §5, §6, §7
# The Dynaflow system allowed application of solutions for as short as 40 ms up to minutes in time. […] There was no difference in response between the second and the third GABA application. Therefore, the first GABA application was always repeated twice and the second response was used in the analysis.
# Washout: GABA is quite soluble in water and easy to washout from the receptor. […] Steroids on the other hand were difficult to dissolve in water and also difficult to washout from the receptor. In the experiments, THDOC and 3alpha-OH-adiol were used as the positive GABAA receptor modulating steroids. With 2 minutes washout time, 200 nM THDOC and 3alpha-OH-adiol was completely washed out as shown by neither an accumulative nor a desensitization effect.
# as §8
# [3] = tested on: female Wistar rats; test: Resident/intruder (R/I) test of estrus cycle-dependent tolerance/withdrawal symptoms; format: in vivo, rat; conditions: 1.5 mg/kg s.c. daily
# Experimental: Experimental set-up: Experiments were carried out in female cycling rats. Rats have steroid variations related to ovulation similar to humans. […] The symptoms are related to the excitability changes in the brain that precedes withdrawal symptoms. Symptoms like migraine attacks and epileptic seizure(s) will arrive after a period of tolerance (Reddy & Rogawski 2009; Slawecki et al 2000, Welch K M. 2005). Symptoms in rats were investigated using a resident/intruder (R/I) test with behavioral analysis at the diestrus and the estrus phases of the estrus cycle (FIG. 3). The symptoms referred to in this Example are behavioral symptoms of withdrawal.
# The frequency of behavioral symptom expression at diestrus and estrus during treatment were compared to the same behavior expression prior to treatment. The intruder rats were ovariectomized animals of the same age and size as the residents.
# Animals: In total, 42 female Wistar rats (Taconics, Lille Skensved, Denmark) were used. At arrival the animals were approximately 9 weeks old and weighed 185-209 g. For identification, the rats were marked on their tails with permanent ink (PorciMark™). The animals were housed in triads at the animal facility where all experiments took place (Umea University, Umea, Sweden). A reversed light/dark cycle was used (12 h/12 h light/dark; lights off at 04:00). Food (standard chow) and water was available ad libitum. The rats were handled daily for two weeks prior to the start of testing. Nine rats were randomly selected as intruder rats and were ovariectomized. The remaining intact rats were tested for estrus cycle-dependent symptomatic behavior. The study protocol was approved by the Regional Ethics Committee of Umea, Sweden. All animal handling and experiments were performed according to Swedish legislation.
# Ovariectomy of the intruder rats: Ovariectomy of the intruder rats was carried out by ligation of uterine tubes and removal of ovaries under anesthesia with 2.3% Isoflurane (Baxter Medical AB, Kista, Sweden) in oxygen (O2 flow rate 0.32 L/min). The surgical suture techniques included the use of surgical glue (Vetbond Tissue Adhesive No 1469 3M) in addition to sutures. Pain relief (Rimadyl Vet, 0.25 mg/100 g) was given daily for one week post-surgery.
# Determination of estrus cycle phase: Estrus cycle phase (proestrus, estrus, metestrus and diestrus) of the rats was determined by microscope examination of vaginal smears. The smears were collected daily between 08:00 and 10:00, using a glass pipette with 50-70 μL normal saline (NaCl 0.9%), and stained with 0.2% toluidine blue. However, on the day of R/I test, the vaginal smear of a tested animal was collected immediately after the encounter. In addition, during the 3beta-hydroxy-5alpha-pregnan-20-one treatment, the smears were collected directly in the morning before injections to confirm expected estrus cycle phase. Diestrus (including metestrus) is characterized by the presence of leucocytes in smears. Both nucleated epithelial cells and cornified epithelial cells are present at diestrus but more abundantly at metestrus than at late diestrus. Estrus (including proestrus) is characterized by thick smears free from leucocytes but with abundant presence of nucleated epithelial cells (predominant in proestrus) and cornified epithelial cell (predominant at estrus). Further details are provided in Hubscher et al., 2005. […]
# [4] = intended doses; cited from earlier work
# T2 sequence (P48169 36-554): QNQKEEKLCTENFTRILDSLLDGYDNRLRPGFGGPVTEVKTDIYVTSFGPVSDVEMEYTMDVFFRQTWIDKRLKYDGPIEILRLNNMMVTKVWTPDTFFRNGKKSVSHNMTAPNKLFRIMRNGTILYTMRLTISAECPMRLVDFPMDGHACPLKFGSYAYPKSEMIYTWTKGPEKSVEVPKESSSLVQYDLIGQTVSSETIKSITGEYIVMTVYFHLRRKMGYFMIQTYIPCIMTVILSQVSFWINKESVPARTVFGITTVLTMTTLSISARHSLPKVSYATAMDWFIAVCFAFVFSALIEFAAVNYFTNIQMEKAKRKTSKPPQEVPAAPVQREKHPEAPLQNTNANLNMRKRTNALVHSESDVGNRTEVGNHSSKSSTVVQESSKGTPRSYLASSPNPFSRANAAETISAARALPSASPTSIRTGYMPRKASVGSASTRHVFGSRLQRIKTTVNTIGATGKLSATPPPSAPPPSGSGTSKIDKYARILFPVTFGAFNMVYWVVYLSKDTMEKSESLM
# T2 sequence (P28472 26-473): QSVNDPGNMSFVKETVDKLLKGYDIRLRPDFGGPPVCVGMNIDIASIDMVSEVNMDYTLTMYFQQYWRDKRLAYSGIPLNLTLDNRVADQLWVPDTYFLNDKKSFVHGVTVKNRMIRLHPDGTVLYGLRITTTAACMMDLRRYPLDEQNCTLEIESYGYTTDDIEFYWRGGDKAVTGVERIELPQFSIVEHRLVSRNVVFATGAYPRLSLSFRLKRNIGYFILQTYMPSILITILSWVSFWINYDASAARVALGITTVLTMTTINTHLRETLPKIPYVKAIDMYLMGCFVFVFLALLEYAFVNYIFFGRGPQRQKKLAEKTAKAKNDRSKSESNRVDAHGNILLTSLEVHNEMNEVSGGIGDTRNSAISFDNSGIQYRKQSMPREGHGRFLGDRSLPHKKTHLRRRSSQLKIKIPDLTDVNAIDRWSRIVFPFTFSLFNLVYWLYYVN
# T2 sequence (O14764 17-452 partner limits assumed): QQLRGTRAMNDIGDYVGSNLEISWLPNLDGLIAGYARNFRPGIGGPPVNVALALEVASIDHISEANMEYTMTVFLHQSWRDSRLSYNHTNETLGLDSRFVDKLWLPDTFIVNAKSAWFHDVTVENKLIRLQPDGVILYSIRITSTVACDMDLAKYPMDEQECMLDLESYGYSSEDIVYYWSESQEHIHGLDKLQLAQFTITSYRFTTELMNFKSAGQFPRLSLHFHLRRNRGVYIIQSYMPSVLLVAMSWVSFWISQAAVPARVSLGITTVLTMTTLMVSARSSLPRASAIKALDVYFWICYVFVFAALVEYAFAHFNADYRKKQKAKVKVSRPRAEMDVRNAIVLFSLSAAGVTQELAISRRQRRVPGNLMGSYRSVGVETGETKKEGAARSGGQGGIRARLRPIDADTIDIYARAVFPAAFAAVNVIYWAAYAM
# T1 sequence (P14867 28-456): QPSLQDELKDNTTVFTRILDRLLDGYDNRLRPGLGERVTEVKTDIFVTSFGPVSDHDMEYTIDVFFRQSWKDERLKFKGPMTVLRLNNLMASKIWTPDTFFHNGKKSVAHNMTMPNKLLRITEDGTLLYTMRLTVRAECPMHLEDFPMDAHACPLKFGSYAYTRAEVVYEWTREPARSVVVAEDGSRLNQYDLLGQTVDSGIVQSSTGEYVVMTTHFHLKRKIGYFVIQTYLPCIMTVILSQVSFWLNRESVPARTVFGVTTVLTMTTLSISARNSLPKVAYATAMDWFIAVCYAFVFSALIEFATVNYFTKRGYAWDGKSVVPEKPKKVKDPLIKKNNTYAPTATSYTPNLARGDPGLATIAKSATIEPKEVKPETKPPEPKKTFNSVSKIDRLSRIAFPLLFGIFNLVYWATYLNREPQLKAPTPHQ
# T1 sequence (P47870 25-512 limits assumed): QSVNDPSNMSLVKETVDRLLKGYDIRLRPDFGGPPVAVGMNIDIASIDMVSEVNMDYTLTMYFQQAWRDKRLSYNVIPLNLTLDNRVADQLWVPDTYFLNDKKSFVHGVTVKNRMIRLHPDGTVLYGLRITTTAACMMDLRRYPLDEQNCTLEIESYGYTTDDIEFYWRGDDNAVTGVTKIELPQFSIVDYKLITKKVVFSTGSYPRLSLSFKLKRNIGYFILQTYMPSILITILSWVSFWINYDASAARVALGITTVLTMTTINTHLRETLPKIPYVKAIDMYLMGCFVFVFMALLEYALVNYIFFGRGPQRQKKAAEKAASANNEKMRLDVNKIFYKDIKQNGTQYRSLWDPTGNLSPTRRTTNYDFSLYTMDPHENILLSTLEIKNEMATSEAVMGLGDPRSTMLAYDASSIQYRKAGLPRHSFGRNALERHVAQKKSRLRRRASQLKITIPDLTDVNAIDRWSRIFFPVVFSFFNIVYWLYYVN
# T1 sequence (P18507 40-475 partner): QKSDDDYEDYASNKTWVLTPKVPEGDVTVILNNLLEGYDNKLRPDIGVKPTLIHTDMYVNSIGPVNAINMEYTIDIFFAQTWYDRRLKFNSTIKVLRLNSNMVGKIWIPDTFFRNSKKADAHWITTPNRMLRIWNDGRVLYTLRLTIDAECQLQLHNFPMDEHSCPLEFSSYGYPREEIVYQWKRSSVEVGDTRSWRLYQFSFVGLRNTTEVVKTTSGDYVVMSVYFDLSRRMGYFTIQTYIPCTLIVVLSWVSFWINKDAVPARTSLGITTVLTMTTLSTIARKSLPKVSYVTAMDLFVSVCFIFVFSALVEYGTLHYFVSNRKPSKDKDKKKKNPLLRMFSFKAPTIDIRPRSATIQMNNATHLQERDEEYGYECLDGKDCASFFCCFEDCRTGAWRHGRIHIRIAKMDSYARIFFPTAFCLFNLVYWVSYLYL
smiles,measurement,setting,value
"CC(=O)[C@H]1CC[C@H]2[C@@H]3CC[C@H]4C[C@@H](O)CC[C@]4(C)[C@H]3CC[C@]12C [UC1010, 3beta-hydroxy-5alpha-pregnan-20-one]","Imax/Emax Mean ± SEM %, antagonism of THDOC enhanced effect",[1]; 1 μM UC1010 + 30 μM GABA + 200 nM THDOC,−22.3±5.3%
same,"Imax/Emax Mean ± SEM %, effect on GABA response","[1]; 1 μM UC1010 + 30 μM GABA, compared to GABA alone",+10.3 ± 7.8%
same,Emax,"[1]; HEK293, 0.1-1 μM UC1010 + 30 μM GABA + 200 nM THDOC, concentration-dependent experiment, read-out: Imax/Emax, max antagonism of THDOC effect",-21 ± 4.6%
same,Emax at 1 µM,"[1]; HEK293, read-out: Imax/Emax Mean ± SEM %, effect on GABA response, 1 μM UC1010 + 30 μM GABA, compared to GABA alone",10.3%
same,"The effect of 1 μM UC1010 on 8 μM Androstanediol + 30 μM GABA, Mean ± SEM %",[1]; steady state (phasic effect),−30 ± 1.7%
same,"The effect of 1 μM UC1010 on 8 μM Androstanediol, baseline shift, Mean ± SEM %",[1]; tonic effect,−33 ± 7.6%
same,"The effect of 1 μM UC1010 on 0.6 μM Androstanediol + 3 μM GABA, Mean ± SEM %",[2],−18 ± 2.0%
same,"The effect of 1 μM UC1010 on 0.8 μM Androstanediol + 3 μM GABA, Mean ± SEM %",[2],−22 ± 2.6%
same,Current response of compound by itself,"[2]; 1 μM, no GABA, no THDOC",−0.4±0.3 pA
same,"The effect of 1 μM UC1010 on 0.1 μM THDOC alone baseline, Mean ± SEM %",[2]; baseline shift without GABA,−43 ± 3.5%
same,"The effect of 1 μM UC1010 on 3 μM GABA response, Mean ± SEM %","[2]; control, GABA alone",−6.7 ± 3.3%
same,"The effect of 1 μM UC1010 on 0.1 μM THDOC + 3 μM GABA, Mean ± SEM %",[2]; steady state,−26 ± 2.4%
same,Symptoms at diestrus during treatment in comparison to mean diestrus without treatment,[3]; 14 rats with symptoms,significantly decreased
same,Relative effect of treatment on symptomatic behavior at diestrus,"[3]; baseline diestrus set to 100%, baseline estrus set to 0%, n=14",−89%
same,Estrus cycle duration or vaginal smear appearance during treatment,[3]; data not shown,did not change
same,Symptomatic behaviors at both diestrus phases when treated compared to diestrus at baseline,[3]; nine rats with symptoms in both cycles,less frequent
same,"Effect size, Cohen's d",[3]; symptoms at diestrus,1.67
same,Safety in clinical studies,[4],shown safe

# Source: patent publication US20210161915A1, “GABA-A ANTAGONISTS FOR TREATING SUBSTANCE […]” (ASARINA PHARMA APS, priority 2018, published 2021)
